Earlier results, collected in US20190358206A1, “TOPICAL FORMULATIONS OF BIARYL HETEROCYCLIC COMPOUNDS AND METHODS OF USE THEREOF” (Melinta Subsidiary Corp., priority 2016, published 2019).

System: intracellular S. aureus (including linezolid-resistant), Listeria monocytogenes and Legionella pneumophila
Conditions: cited from earlier work

Structure (SMILES): CC(=O)NC[C@H]1CN(c2ccc(-c3ccc(CNCc4cnn[nH]4)cc3)c(F)c2)C(=O)O1 [Radezolid, N-[3-(2-Fluoro-4′-{[(1H-[1,2,3]triazol-4-ylmethyl)-amino]-methyl}-biphenyl-4-yl)-2-oxo-oxazolidin-5-(S)-ylmethyl]-acetamide]
- intracellular killing: kills intracellular S. aureus (including linezolid-resistant), Listeria monocytogenes and Legionella pneumophila
